In the supplement of paper PMC10307832:

Columns and labels:
Assay in all cases: relative viability (nuclei count vs DMSO), 5 days (fraction); higher = more cells survive
[1] = compound: C=CCc1cccc(/C=N/NC(=O)CN2CCN(Cc3ccccc3)CC2)c1O [PAC-1] + CC(=O)c1c(C)c2cnc(Nc3ccc(N4CCNCC4)cn3)nc2n(C2CCCC2)c1=O [Palbociclib] (partner 0.5 µM)
How it was run: (§1)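 Lung cancer cell lines were seeded in 1536-well plates and dosed by pin tool the next day, with either a single drug or a fixed anchor-drug dose combined with five library-drug doses (not always all listed) spaced in √10 steps. Five days later, one step fixed the cells and stained their nuclei (final 0.05% Triton X-100, 1% formaldehyde, 1 ug/ml Hoechst), and nuclei were counted on 4× images. Relative viability is the nuclei count in treated wells divided by the count in vehicle wells, and each value is the median of duplicate plates.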

[2] = compound: C=CCc1cccc(/C=N/NC(=O)CN2CCN(Cc3ccccc3)CC2)c1O [PAC-1] + CCNC(=O)c1noc(-c2cc(C(C)C)c(O)cc2O)c1-c1ccc(CN2CCOCC2)cc1 [Luminespib] (partner 0.01 µM)
How it was run: as §1

[3] = compound: C=CC(=O)Nc1cc(-n2c(=O)ccc3cnc4ccc(-c5ccc(NS(C)(=O)=O)cc5)cc4c32)ccc1C [BMX-IN-1] + CC1(C)CCC(c2ccc(Cl)cc2)=C(CN2CCN(c3ccc(C(=O)NS(=O)(=O)c4ccc(N[C@H](CCN5CCOCC5)CSc5ccccc5)c(S(=O)(=O)C(F)(F)F)c4)cc3)CC2)C1 [Navitoclax] (partner 0.5 µM)
How it was run: as §1

[4] = compound: C=CCc1cccc(/C=N/NC(=O)CN2CCN(Cc3ccccc3)CC2)c1O [PAC-1] + CS(=O)(=O)CCNCc1ccc(-c2ccc3ncnc(Nc4ccc(OCc5cccc(F)c5)c(Cl)c4)c3c2)o1 [Lapatinib] (partner 2 µM)
How it was run: as §1

[5] = compound: C=CC(=O)Nc1cc(-n2c(=O)ccc3cnc4ccc(-c5ccc(NS(C)(=O)=O)cc5)cc4c32)ccc1C [BMX-IN-1] + NC(=O)Nc1cc(-c2cccc(F)c2)sc1C(=O)N[C@H]1CCCNC1 [AZD7762] (partner 0.2 µM)
How it was run: as §1

Cell Line | relative viability ([1]; first compound 0.02 µM) | relative viability ([1]; first compound 0.06325 µM) | relative viability ([1]; first compound 0.2 µM) | relative viability ([1]; first compound 2 µM) | relative viability ([2]; first compound 0.02 µM) | relative viability ([2]; first compound 0.06325 µM) | relative viability ([2]; first compound 0.2 µM) | relative viability ([2]; first compound 2 µM) | relative viability ([3]; first compound 0.02 µM) | relative viability ([3]; first compound 0.2 µM) | relative viability ([3]; first compound 0.6325 µM) | relative viability ([3]; first compound 2 µM) | relative viability ([4]; first compound 0.02 µM) | relative viability ([4]; first compound 0.06325 µM) | relative viability ([4]; first compound 0.2 µM) | relative viability ([4]; first compound 2 µM) | relative viability ([5]; first compound 0.02 µM) | relative viability ([5]; first compound 0.2 µM) | relative viability ([5]; first compound 0.6325 µM) | relative viability ([5]; first compound 2 µM)
LXF-289 | 0.605 | 0.599 | 0.597 | 0.597 | 0.683 | 0.731 | 0.758 | 0.756 | 0.954 | 1.06 | 1.03 | 1.01 | 0.901 | 0.903 | 0.897 | 0.927 | 1.25 | 1.18 | 1.22 | 1.27
NCI-H23 | 0.629 | 0.521 | 0.524 | 0.533 | 0.231 | 0.223 | 0.237 | 0.219 | 0.979 | 0.85 | 0.858 | 0.738 | 1.13 | 1.17 | 0.868 | 1.34 | 0.211 | 0.272 | 0.18 | 0.25
NCI-H322M | 0.434 | 0.42 | 0.519 | 0.466 | 0.812 | 0.832 | 0.848 | 0.775 | 0.848 | 1.18 | 1.24 | 1.16 | 0.526 | 0.581 | 0.668 | 0.576 | 0.532 | 0.559 | 0.714 | 0.485
NCI-H460 | 0.148 | 0.162 | 0.129 | 0.248 | 0.035 | 0.0314 | 0.0281 | 0.0281 | – | – | 1.32 | 1.25 | 1.01 | 1.01 | 0.916 | 0.942 | 0.725 | 0.566 | 0.768 | 0.735
NCI-H647 | 0.288 | 0.37 | 0.35 | 0.409 | 0.103 | 0.123 | 0.286 | 0.16 | 1.52 | 1.23 | 1.03 | 1.16 | 0.851 | 1.05 | 0.866 | 0.934 | 0.492 | 0.583 | 0.71 | 0.62
NCI-H727 | 0.516 | 0.597 | 0.681 | 0.714 | 0.255 | 0.371 | 0.639 | 0.315 | 0.333 | 0.443 | 0.471 | 0.426 | 0.717 | 0.674 | 0.801 | 0.884 | 0.574 | 0.585 | 0.635 | 0.541
NCI-H838 | 0.239 | 0.227 | 0.22 | 0.229 | 0.254 | 0.374 | 0.238 | 0.301 | 1.39 | 1.33 | 1.21 | 1.18 | 0.931 | 0.968 | 0.83 | 1.01 | 1.06 | 1.01 | 0.956 | 1.01
NCI-H1355 | 0.43 | 0.39 | 0.412 | 0.421 | 0.762 | 0.668 | 0.797 | 0.778 | 1 | 0.969 | 0.94 | 0.99 | 0.97 | 0.977 | 0.929 | 1.11 | 0.872 | 0.85 | 0.838 | 0.755
